Converted amounts (≈) assume the structure as drawn. Like-named read-outs stand apart in the source and are kept apart here.
How the values were obtained:
HCT116 cells = settings: cited from earlier work
MDA-MB-231 cells = settings: cited from earlier work
HTB140 cells = test system: HTB140 cells; design: method as in PMID 34577645; settings: HTB140, 48 h (implied); cited from earlier work
A375 cells = test system: A375 cells; design: method as in PMID 34577645; settings: A375, 48 h; cited from earlier work
U87MG cells = settings: cited from earlier work; for CC50: 24 h
LNCaP cells = test system: LNCaP cells; design: method as in PMID 30101414; settings: 48 h, cited from earlier work
DLD1 cells = settings: DLD1, 48 h, cited from earlier work
DU145 = experiment: MTT viability assay, DU145 prostate cancer cells; type: cell-based, human; settings: for Cell viability: DU145, 24 h; for IC50: Homo sapiens, DU-145
Text: (§1) Cell lines of different origins were used in the study and grouped as follows: prostate panel (human prostate carcinomas: DU145, derived from metastatic site: brain; grade IV PC3, derived from metastatic site: bone; LNCaP, derived from the metastatic site: lymph node; prostate epithelial, PNT2), colon panel (colorectal adenocarcinomas: HT29, originating from a primary tumor; Duke’s type C DLD-1, with the potential to lymph node metastasis; highly metastatic HCT116; colon epithelial cells CCD 841 CoN), thyroid panel (follicular thyroid carcinoma FTC133, anaplastic thyroid carcinoma 8505C, papillary thyroid carcinoma TPC-1, normal thyroid follicular epithelial Nthy-ori 3–1), breast panel (ER-positive breast adenocarcinoma MCF7, ER-negative breast adenocarcinoma MDA-MB-231, breast epithelial MCF10A), brain panel (neuroblastoma SH-SY5Y, glioblastoma U-87 MG, murine astrocytes C8D1A). All cell lines were purchased from Merck (Darmstadt, Germany).
(§2) Cells were grown under standard conditions (37 °C, 5% CO2) and culture media (DMEM/F12 for PNT2, PC3, FTC133, 8505 C, MDA-MB-231, TPC-1; DMEM Low Glucose for DU145; DMEM High Glucose for HCT116, DLD-1, SH-SY5Y, U87MG, C8D1A; MEM with NEAA for MCF7; MEM for CCD 841 CoN; McCoy’s for HT29; RPMI1640 with sodium pyruvate for LNCaP; DMEM/F12 with 20 ng/mL epidermal growth factor (EGF), 10 μg/mL insulin, 0.5 μg/mL hydrocortisone, 100 ng/mL cholera toxin) for MCF10A), supplemented with 10% fetal bovine serum (FBS) or 5% donor horse serum for MCF10A, and 1% antibiotics solution (10,000 U penicillin and 10 mg streptomycin/mL). The tested substances were prepared as 10 mg/mL stock solutions in DMSO and further diluted in the culture media to the working concentrations. Cells were treated with UA enantiomers at the concentration range of 0–50 µg/mL. The influence of DMSO on cell viability was also examined, with the final concentration […], and no toxic effect was noted.
(§3) The cells were seeded onto 96-well plates at a density of 1.5 × 10^4 cells/well. After 24 h UA enantiomers were added. Cell viability was determined after 24, 48, and 72 h by the MTT assay, as described previously. Doxorubicin was used as a reference cytostatic drug. All analyses were performed in triplicate; cell viability was expressed as % of control, untreated cells (mean ± SD), and IC50 values (concentration at which cell viability is inhibited by 50%), if possible.
The selectivity index (SI) was calculated, if possible, by dividing the IC50 value obtained for non-cancerous cells line by the IC50 values obtained for appropriate cancer cell line, as described previously. […] The values above 3 indicate good selectivity.

DLD-1 = experiment: MTT viability assay, DLD-1 colon cancer cells; type: cell-based, human; settings: for Cell viability: DLD-1, 24 h; for IC50: Homo sapiens
Text: as §1, §2, §3

[1] = test system: SH-SY5Y neuroblastoma cells; settings: cited from earlier work
Nthy ori 3-1 = experiment: MTT viability assay, normal thyroid follicular epithelial cells; type: cell-based, human; settings: for IC50: Homo sapiens; for Cell viability: Nthy ori 3-1, 24 h
Text: as §1, §2, §3

A172 = test system: A172; design: method as in PMID 34959693; settings: cited from earlier work
T98G = test system: T98G; design: method as in PMID 34959693; settings: cited from earlier work
HaCaT keratinocytes = test system: HaCaT keratinocytes; design: method as in PMID 34500657; settings: cited from earlier work
[2] = recalculated from µM by the authors

For CC(=O)C1=C(O)C=C2Oc3c(C(C)=O)c(O)c(C)c(O)c3[C@@]2(C)C1=O [UA(+), (+)-usnic acid], the IC50 (HCT116 cells; HCT116, 48 h, recalculated from µM by the authors) is given as 34.4 µg/mL, the IC50 (HCT116 cells; HCT116, 48 h, read-out: IC50) is given as 100 µM and the IC50 (HCT116 cells; HCT116, 72 h, recalculated from µM by the authors) is given as 49.24 µg/mL. The IC50 (HCT116 cells; HCT116, 72 h, read-out: IC50) was 143 µM, the IC50 (MDA-MB-231 cells; MDA-MB-231, 24 h, recalculated from µM by the authors) was 13.23 µg/mL and the IC50 (MDA-MB-231 cells; MDA-MB-231, 24 h, read-out: IC50) was 38.4 µM. The IC50 (MDA-MB-231 cells; MDA-MB-231, 72 h, recalculated from µM by the authors) was 4.5 µg/mL, the IC50 (MDA-MB-231 cells; MDA-MB-231, 72 h, read-out: IC50) was 13.1 µM and the IC50 (HTB140 cells) was 14.72 µg/mL (≈ 42.8 µM). The IC50 (A375 cells) was 11.84 µg/mL (≈ 34.4 µM), the CC50 (U87MG cells; read-out: CC50) was 47 µM and the CC50 (U87MG cells; [2]) was 16 µg/mL. For the same compound, the IC50 (U87MG cells; 48 h) was 41.5 µg/mL (≈ 121 µM), the IC50 (LNCaP cells; read-out: IC50) was 77.5 µM and the IC50 (LNCaP cells; [2]) was 26.7 µg/mL. For the same compound, the IC50 (DLD1 cells; [2]) was 34.4 µg/mL, the IC50 (DLD1 cells; read-out: IC50) was 100 µM and the Cell viability (DU145; 2.5 µg/mL) was 102.26 % of control. For the same compound, the Cell viability (DU145; 5 µg/mL) was 94.38 % of control, the Cell viability (DU145; 10 µg/mL) was 86.92 % of control and the Cell viability (DU145; 20 µg/mL) was 87.54 % of control. The Cell viability (DU145; 30 µg/mL) was 72.41 % of control, the Cell viability (DU145; 40 µg/mL) was 68.15 % of control and the Cell viability (DU145; 50 µg/mL) was 67.13 % of control. The IC50 (DU145; DU145, 48 h) was 11.5 µg/mL (≈ 33.4 µM), the IC50 (DU145; DU145, 72 h) was 12.1 µg/mL (≈ 35.1 µM) and the “selectivity index (SI)” value (DU145; IC50 PNT2 / IC50 DU145, 48 h) was 3.25. For the same compound, the “selectivity index (SI)” value (DU145; IC50 PNT2 / IC50 DU145, 48 h, listed as (+)-UA) was “exceeding 3”, the “selectivity index (SI)” value (DU145; IC50 PNT2 / IC50 DU145, 72 h) was 1.68 and the Cell viability (DLD-1; 2.5 µg/mL) was 96.51 % of control. For the same compound, the Cell viability (DLD-1; 5 µg/mL) was 89.29 % of control, the Cell viability (DLD-1; 10 µg/mL) was 75.63 % of control and the Cell viability (DLD-1; 20 µg/mL) was 82.11 % of control. The Cell viability (DLD-1; 30 µg/mL) was 71.08 % of control, the Cell viability (DLD-1; 40 µg/mL) was 68.28 % of control and the Cell viability (DLD-1; 50 µg/mL) was 68.46 % of control. For the same compound, the IC50 (DLD-1; DLD-1, 48 h) was 26.1 µg/mL (≈ 75.8 µM), the IC50 (DLD-1; DLD-1, 72 h) was 19.6 µg/mL (≈ 56.9 µM) and the Cell viability ([1]; at 2 µg/mL) was 42%. For the same compound, the Cell viability ([1]; at 10 µg/mL) was 57%, the IC50 (Nthy ori 3-1; Nthy-ori 3-1, 48 h) was > 50 µg/mL and the IC50 (Nthy ori 3-1; Nthy-ori 3-1, 72 h) was 33.2 µg/mL (≈ 96.4 µM). The Cell viability (Nthy ori 3-1; 2.5 µg/mL) was 97.57 % of control, the Cell viability (Nthy ori 3-1; 5 µg/mL) was 100.56 % of control and the Cell viability (Nthy ori 3-1; 10 µg/mL) was 95.69 % of control. The Cell viability (Nthy ori 3-1; 20 µg/mL) was 93.96 % of control, the Cell viability (Nthy ori 3-1; 30 µg/mL) was 94.51 % of control and the Cell viability (Nthy ori 3-1; 40 µg/mL) was 97.29 % of control. For the same compound, the Cell viability (Nthy ori 3-1; 50 µg/mL) was 97.71 % of control.

In the case of CC(=O)C1=C(O)C=C2Oc3c(C(C)=O)c(O)c(C)c(O)c3[C@]2(C)C1=O [UA(−), (−)-usnic acid], the IC50 (A172) is given as 31.5 µg/mL (≈ 91.5 µM), the IC50 (T98G) is given as 13 µg/mL (≈ 37.8 µM) and the IC50 (HaCaT keratinocytes; 48 h) is given as 80.82 µg/mL (≈ 235 µM). For the same compound, the IC50 (HaCaT keratinocytes; 72 h) was 70.12 µg/mL (≈ 204 µM), the Cell viability (DU145; 2.5 µg/mL) was 99.84 % of control and the Cell viability (DU145; 5 µg/mL) was 89.03 % of control. For the same compound, the Cell viability (DU145; 10 µg/mL) was 82.15 % of control, the Cell viability (DU145; 20 µg/mL) was 77.63 % of control and the Cell viability (DU145; 30 µg/mL) was 68.28 % of control. The Cell viability (DU145; 40 µg/mL) was 64.95 % of control, the Cell viability (DU145; 50 µg/mL) was 65.86 % of control and the IC50 (DU145; DU145, 48 h) was 34.8 µg/mL (≈ 101 µM). The IC50 (DU145; DU145, 72 h) was 18.6 µg/mL (≈ 54 µM), the “selectivity index (SI)” value (DU145; IC50 PNT2 / IC50 DU145, 48 h) was 1.02 and the “selectivity index (SI)” value (DU145; IC50 PNT2 / IC50 DU145, 72 h) was 1.49. The Cell viability (DLD-1; 2.5 µg/mL) was 100.75 % of control, the Cell viability (DLD-1; 5 µg/mL) was 97.99 % of control and the Cell viability (DLD-1; 10 µg/mL) was 92.05 % of control. For the same compound, the Cell viability (DLD-1; 20 µg/mL) was 81.25 % of control, the Cell viability (DLD-1; 30 µg/mL) was 78.35 % of control and the Cell viability (DLD-1; 40 µg/mL) was 77.75 % of control. The Cell viability (DLD-1; 50 µg/mL) was 77.98 % of control, the IC50 (DLD-1; DLD-1, 48 h) was 44.3 µg/mL (≈ 129 µM) and the IC50 (DLD-1; DLD-1, 72 h) was 15.4 µg/mL (≈ 44.7 µM). For the same compound, the IC50 (Nthy ori 3-1; Nthy-ori 3-1, 48 h) was > 50 µg/mL, the IC50 (Nthy ori 3-1; Nthy-ori 3-1, 72 h) was 29.3 µg/mL (≈ 85.1 µM) and the Cell viability (Nthy ori 3-1; 2.5 µg/mL) was 97.23 % of control. For the same compound, the Cell viability (Nthy ori 3-1; 5 µg/mL) was 99.36 % of control, the Cell viability (Nthy ori 3-1; 10 µg/mL) was 94.52 % of control and the Cell viability (Nthy ori 3-1; 20 µg/mL) was 93.76 % of control. For the same compound, the Cell viability (Nthy ori 3-1; 30 µg/mL) was 95.25 % of control, the Cell viability (Nthy ori 3-1; 40 µg/mL) was 96.10 % of control and the Cell viability (Nthy ori 3-1; 50 µg/mL) was 98.58 % of control.

Source: article PMC12298648, “An Evaluation of the Cytotoxicity and Safety Profile of Usnic Acid for a Broad Panel of Human Cancers and Normal Cells with Respect to Its Enantiospecificity” (Molecules, 2025)
